This note sets out measurements from US20030170893A1, “NANOCAPSULE ENCAPSULATION SYSTEM AND METHOD” (Genesegues, Inc., priority 2000, published 2003).

Data set [1] has as its system squamous cell carcinoma cultures. Nature of the data set: Cell growth inhibition, MTT assay, carcinoma. Type of data set: cell-based, human. To be noted: 18 hours treatment, 72 hours total growth time. The protocol:
FIG. 6C: Carcinoma cells and HDF's were seeded overnight into 96 well plates at 2000 and 6000 cells per well respectively. Cisplatin preparations were added to wells for 18 hours as noted on the graph than washed out. After 72 hours cell viability of assessed by a commercial MTT assay (WST assay, Boehringer Mannheim). Wells were executed in duplicate.
Nanocapsules were prepared as described in Example 1 to encapsulate cisplatin, a […] molecule and a common cancer chemotherapeutic with serious side effects. A coating weight ratio of 1:100 was used and irregular nanocapsules of 29±3 nm were produced. […] Cells were seeded overnight into 96 well plates, treated for 18 hours with increasing amounts of encapsulated or unencapsulated drug, then assessed for cell growth inhibition using an MTT assay […] for total growth time of 72 hours. Results are illustrated in FIG. 6C.

Data set [2] concerns human dermal fibroblast (HDF) cultures. Nature of the data set: Cell growth inhibition, MTT assay, fibroblasts. Type of data set: cell-based. To be noted: 18 hours treatment, 72 hours total growth time.
Procedure: Cells were seeded overnight into 96 well plates, treated for 18 hours with increasing amounts of encapsulated or unencapsulated drug, then assessed for cell growth inhibition using an MTT assay 48 hours later for total growth time of 72 hours.

As to `N.N.[Cl][Pt][Cl]` [unencapsulated drug, cisplatin], the “inhibition concentration (IC50)” value in data set [1] stood at 525 µg/mL. In addition, in data set [2], the “Cell death of nontarget cells” value is reported as “killed”.
